Laboratory results taken from PubChem BioAssay (NCI).
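Five compound concentrations were applied to cells in 96-well plates for 48 hours; endpoints were derived by simple linear interpolation of the resulting dose-response curve. TGI denotes the concentration required for complete inhibition of growth.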

Columns and labels:
Test in all cases: NCI tumour cell line growth inhibition, 48 h
A498 renal = system: A498 renal
A549 NSCLC = system: A549 NSCLC
CAKI-1 renal = system: CAKI-1 renal
CCRF-CEM leukemia = system: CCRF-CEM leukemia
COLO 205 colon = system: COLO 205 colon
DLD-1 colon = system: DLD-1 colon
DMS 114 small cell lung = system: DMS 114 small cell lung
DMS 273 small cell lung = system: DMS 273 small cell lung
EKVX NSCLC = system: EKVX NSCLC
HCC-2998 colon = system: HCC-2998 colon
HCT-116 colon = system: HCT-116 colon
HCT-15 colon = system: HCT-15 colon
HL-60(TB) leukemia = system: HL-60(TB) leukemia
HOP-18 NSCLC = system: HOP-18 NSCLC
HOP-62 NSCLC = system: HOP-62 NSCLC
HOP-92 NSCLC = system: HOP-92 NSCLC
HT29 colon = system: HT29 colon
IGROV1 ovarian = system: IGROV1 ovarian
K-562 leukemia = system: K-562 leukemia
KM12 colon = system: KM12 colon
KM20L2 colon = system: KM20L2 colon
LOX IMVI melanoma = system: LOX IMVI melanoma
M19-MEL melanoma = system: M19-MEL melanoma
MALME-3M melanoma = system: MALME-3M melanoma
MCF7 breast = system: MCF7 breast
NCI-H226 lung = system: NCI-H226 lung
NCI-H23 lung = system: NCI-H23 lung
NCI-H460 lung = system: NCI-H460 lung
NCI-H522 lung = system: NCI-H522 lung
NCI/ADR-RES ovarian = system: NCI/ADR-RES ovarian
OVCAR-3 ovarian = system: OVCAR-3 ovarian
OVCAR-4 ovarian = system: OVCAR-4 ovarian
OVCAR-5 ovarian = system: OVCAR-5 ovarian
OVCAR-8 ovarian = system: OVCAR-8 ovarian
P388 leukemia = system: P388 leukemia
P388/ADR leukemia = system: P388/ADR leukemia
RPMI-8226 leukemia = system: RPMI-8226 leukemia
RXF 393 renal = system: RXF 393 renal
SF-268 CNS = system: SF-268 CNS
SF-295 CNS = system: SF-295 CNS
SF-539 CNS = system: SF-539 CNS
SK-MEL-2 melanoma = system: SK-MEL-2 melanoma
SK-MEL-5 melanoma = system: SK-MEL-5 melanoma
SK-OV-3 ovarian = system: SK-OV-3 ovarian
SN12C renal = system: SN12C renal
SN12K1 renal = system: SN12K1 renal
SNB-75 CNS = system: SNB-75 CNS
SNB-78 CNS = system: SNB-78 CNS
SW-620 colon = system: SW-620 colon
U251 CNS = system: U251 CNS
UACC-257 melanoma = system: UACC-257 melanoma
UACC-62 melanoma = system: UACC-62 melanoma
UO-31 renal = system: UO-31 renal
XF 498 CNS = system: XF 498 CNS

CC1[C@@H]2C[C@@H]3O[C@@]34[C@H]3CCC5Cc6nc7c(nc6C[C@@]5(C)C3(O)CC(=O)[C@@]24CO[C@]12OC(C)(C)CC2O)CC1CC[C@@H]2C3=C[C@H]4O[C@@]5(O[C@@](C)(CO)C[C@@H]5O)C(C)[C@@]4(O)[C@]3(C)[C@@H](O)CC2[C@]1(C)C7 (some centres undefined)
TGI (A498 renal): 0.0643 µM | TGI (A549 NSCLC): 1.16 µM | TGI (CAKI-1 renal): > 3.52 µM | TGI (CCRF-CEM leukemia): 0.0413 µM | TGI (COLO 205 colon): 0.156 µM | TGI (DLD-1 colon): > 3.52 µM | TGI (DMS 114 small cell lung): 1.09 µM | TGI (DMS 273 small cell lung): 0.0177 µM | TGI (EKVX NSCLC): 1.03 µM | TGI (HCC-2998 colon): > 3.52 µM | TGI (HCT-116 colon): > 3.52 µM | TGI (HCT-15 colon): 2.66 µM | TGI (HL-60(TB) leukemia): 0.0305 µM | TGI (HOP-18 NSCLC): > 3.52 µM | TGI (HOP-62 NSCLC): 0.0729 µM | TGI (HOP-92 NSCLC): 0.976 µM | TGI (HT29 colon): 0.0945 µM | TGI (IGROV1 ovarian): > 3.52 µM | TGI (K-562 leukemia): 0.666 µM | TGI (KM12 colon): 0.893 µM | TGI (KM20L2 colon): 0.244 µM | TGI (LOX IMVI melanoma): > 3.52 µM | TGI (M19-MEL melanoma): > 3.52 µM | TGI (MALME-3M melanoma): 0.247 µM | TGI (MCF7 breast): > 3.52 µM | TGI (NCI-H226 lung): > 3.52 µM | TGI (NCI-H23 lung): 0.467 µM | TGI (NCI-H460 lung): 0.479 µM | TGI (NCI-H522 lung): 0.653 µM | TGI (NCI/ADR-RES ovarian): > 3.52 µM | TGI (OVCAR-3 ovarian): > 3.52 µM | TGI (OVCAR-4 ovarian): > 3.52 µM | TGI (OVCAR-5 ovarian): 0.218 µM | TGI (OVCAR-8 ovarian): > 3.52 µM | TGI (P388 leukemia): 0.357 µM | TGI (P388/ADR leukemia): 0.232 µM | TGI (RPMI-8226 leukemia): > 3.52 µM | TGI (RXF 393 renal): 0.0296 µM | TGI (SF-268 CNS): 0.683 µM | TGI (SF-295 CNS): 0.0164 µM | TGI (SF-539 CNS): 0.115 µM | TGI (SK-MEL-2 melanoma): 0.863 µM | TGI (SK-MEL-5 melanoma): > 3.52 µM | TGI (SK-OV-3 ovarian): 0.231 µM | TGI (SN12C renal): > 3.52 µM | TGI (SN12K1 renal): 0.666 µM | TGI (SNB-75 CNS): 0.028 µM | TGI (SNB-78 CNS): 0.622 µM | TGI (SW-620 colon): 0.49 µM | TGI (U251 CNS): 0.332 µM | TGI (UACC-257 melanoma): > 3.52 µM | TGI (UACC-62 melanoma): 0.104 µM | TGI (UO-31 renal): 0.755 µM | TGI (XF 498 CNS): 0.0328 µM
